In ChEMBL document CHEMBL3714750, “Aryl sulfonamides” (2008):
The source made the active and inactive calls. The calls are words filed in the database; no cut-off is given here.

Assays:
[1] = biological target: T1, C-C chemokine receptor type 9 (Homo sapiens, UniProt P51686); experiment: Antagonist activity against CCR9 in human MOLT4 cells assessed as inhibition of human recombinant TECK-induced calcium response pre-treated before TECK stimulation by Flou-4-AM dye based FLIPR assay; format: functional, cell-based, MOLT-4
T1 sequence (P51686 whole entry): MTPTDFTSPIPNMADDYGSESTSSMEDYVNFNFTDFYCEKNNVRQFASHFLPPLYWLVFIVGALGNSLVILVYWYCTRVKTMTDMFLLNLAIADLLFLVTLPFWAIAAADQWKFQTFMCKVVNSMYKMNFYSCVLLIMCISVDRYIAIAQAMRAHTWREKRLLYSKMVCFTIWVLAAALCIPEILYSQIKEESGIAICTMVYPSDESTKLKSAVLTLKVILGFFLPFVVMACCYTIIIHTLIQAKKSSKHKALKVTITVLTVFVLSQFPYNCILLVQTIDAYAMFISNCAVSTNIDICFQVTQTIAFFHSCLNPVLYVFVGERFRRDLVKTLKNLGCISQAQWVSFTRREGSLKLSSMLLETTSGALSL

Mus musculus = experiment: Inhibition of inflammatory bowel disease-associated growth retardation in MDR1a-knockout mouse at 50 mg/kg, sc dosed twice daily for 14 consecutive weeks starting at age 10 weeks; format: functional, organism-based

C[C@@H]1CN(c2ccc(S(=O)(=O)Nc3ccc(Cl)cc3C(=O)c3ccncc3)cc2F)C[C@H](C)O1
IC50 [1]: < 1000 nM

O=C(c1ccncc1)c1cc(Cl)ccc1NS(=O)(=O)c1ccc(C(F)(F)F)cc1
IC50 [1]: > 1000 nM

CC(C)(C)c1ccc(S(=O)(=O)Nc2ccc(F)c(F)c2C(=O)c2ccncc2)cc1
IC50 [1]: < 1000 nM

Cc1cccc(C(=O)c2cc(Cl)ccc2NS(=O)(=O)c2ccc(-c3cnco3)cc2)n1
IC50 [1]: < 1000 nM

CC(C)(C)c1ccc(S(=O)(=O)Nc2ccc(Cl)cc2C(=O)c2ccnc(Cl)c2)cc1
IC50 [1]: < 1000 nM

CC(C)Oc1ccc(S(=O)(=O)Nc2ccc(Cl)cc2C(=O)c2ccncc2)cc1
IC50 [1]: < 1000 nM

COc1ccc(S(=O)(=O)Nc2ccc(Br)cc2C(=O)c2ccncc2)cc1
IC50 [1]: > 1000 nM

COc1ccc(S(=O)(=O)Nc2ccc(Cl)cc2C(=O)c2ccncc2)cc1
IC50 [1]: < 1000 nM

CC(C)(c1ccc(S(=O)(=O)Nc2ccc(Cl)cc2C(=O)c2ccncc2)cc1)N1CCCCC1=O
IC50 [1]: < 1000 nM

Cc1ccc(C(=O)c2cc(Cl)ccc2NS(=O)(=O)c2ccc(N3C[C@@H](C)O[C@@H](C)C3)cc2)c[n+]1[O-]
IC50 [1]: < 1000 nM

Cc1ccc(C(=O)c2cc(Cl)ccc2NS(=O)(=O)c2ccc(N3CCOCC3)cc2)c[n+]1[O-]
IC50 [1]: < 1000 nM

O=C(c1ccncc1)c1cc(Cl)ccc1NS(=O)(=O)c1ccc(I)cc1
IC50 [1]: < 1000 nM

Cn1cc(C(=O)c2cc(Cl)ccc2NS(=O)(=O)c2ccc(C(C)(C)C)cc2)nn1
IC50 [1]: < 1000 nM

CSc1ccc(C(=O)c2cc(Cl)ccc2NS(=O)(=O)c2ccc(C(C)(C)C)cc2)cn1
IC50 [1]: < 1000 nM

O=C(c1cc[n+]([O-])cc1)c1cc(Cl)ccc1NS(=O)(=O)c1ccc(N2CCOCC2)cc1
IC50 [1]: < 1000 nM

Cc1ccc(C(=O)c2cc(Cl)ccc2NS(=O)(=O)c2ccc(-c3cnco3)cc2)cn1
IC50 [1]: < 1000 nM

CC(C)(C)c1ccc(S(=O)(=O)Nc2ccc(Cl)cc2C(=O)c2ccnc(C#N)c2)cc1
IC50 [1]: < 1000 nM

O=C(c1cc[n+]([O-])cc1)c1cc(Cl)ccc1NS(=O)(=O)c1ccc(N2CCOCC2)c(F)c1
IC50 [1]: < 1000 nM

Cc1cc(C(=O)c2cc(Cl)ccc2NS(=O)(=O)c2ccc(OC(C)C)cc2)cc[n+]1[O-]
IC50 [1]: < 1000 nM

O=C(c1ccncc1)c1cc(Cl)ccc1NS(=O)(=O)c1ccc(OC(F)(F)F)cc1
IC50 [1]: < 1000 nM

CC(C)(C)c1ccc(S(=O)(=O)Nc2ccc(Cl)cc2C(=O)c2ccncc2)cc1
Activity (Mus musculus): Active | IC50 [1]: < 1000 nM

Cc1cc(C(=O)c2cc(Cl)ccc2NS(=O)(=O)c2ccc(C(C)(C)C)cc2)cc[n+]1[O-]
IC50 [1]: < 1000 nM

O=C(c1ccc[n+]([O-])c1)c1cc(Cl)ccc1NS(=O)(=O)c1ccc(N2CCOCC2)cc1
IC50 [1]: < 1000 nM

O=C(c1ccncc1)c1cc(Cl)ccc1NS(=O)(=O)c1ccc(N2CCCCC2)cc1
IC50 [1]: < 1000 nM

CCc1ccc(S(=O)(=O)Nc2ccc(Cl)cc2C(=O)c2ccncc2)cc1
IC50 [1]: < 1000 nM

CC1(c2ccc(S(=O)(=O)Nc3ccc(Cl)cc3C(=O)c3cc[n+]([O-])cc3)cc2)CCOCC1
IC50 [1]: < 1000 nM

O=C(c1ccncc1)c1cc(Cl)ccc1NS(=O)(=O)c1ccc(-c2ncco2)cc1
IC50 [1]: < 1000 nM

CC(C)(C)c1ccc(S(=O)(=O)Nc2ccc(Cl)cc2C(=O)c2ccncn2)cc1
IC50 [1]: < 1000 nM

O=C(c1cccnc1)c1cc(Cl)ccc1NS(=O)(=O)c1ccc(N2CCOCC2)cc1
IC50 [1]: < 1000 nM

O=C(c1cccnc1)c1cc(F)c(F)cc1NS(=O)(=O)c1ccc(N2CCOCC2)cc1
IC50 [1]: < 1000 nM

O=C(c1ccncc1)c1cc(Cl)ccc1NS(=O)(=O)c1ccc(N2CCOCC2)cc1
IC50 [1]: < 1000 nM

Cc1cc(C(=O)c2cc(Cl)ccc2NS(=O)(=O)c2ccc(C3(C)CCOCC3)cc2)cc[n+]1[O-]
IC50 [1]: < 1000 nM

CC(C)(C)c1ccc(S(=O)(=O)Nc2ccc(F)cc2C(=O)c2ccncc2)cc1
IC50 [1]: < 1000 nM

CC(C)(C)OC(=O)n1c(-c2ccc(S(=O)(=O)Nc3ccc(Cl)cc3C(=O)c3ccncc3)cc2)cc2ccccc21
IC50 [1]: > 1000 nM

O=C(c1ccncc1)c1cc(Cl)ccc1NS(=O)(=O)c1ccc(-c2ccccc2)cc1
IC50 [1]: < 1000 nM

O=C(c1ccncc1)c1cc(Cl)ccc1NS(=O)(=O)c1ccc(-c2cnco2)cc1
IC50 [1]: < 1000 nM

Cn1nc(C(=O)c2cc(Cl)ccc2NS(=O)(=O)c2ccc(C(C)(C)C)cc2)c2ccccc21
IC50 [1]: > 1000 nM

Cc1nnc(-c2cccc(S(=O)(=O)Nc3ccc(Cl)cc3C(=O)c3ccncc3)c2)o1
IC50 [1]: > 1000 nM

C[C@@H]1CN(c2ccc(S(=O)(=O)Nc3ccc(Cl)cc3C(=O)c3ccc[n+]([O-])c3)cc2)C[C@H](C)O1
IC50 [1]: < 1000 nM

CC(C)(C)c1ccc(S(=O)(=O)Nc2cc(Cl)ccc2C(=O)c2ccncc2)cc1
IC50 [1]: < 1000 nM

CC(C)(c1ncco1)c1ccccc1S(=O)(=O)Nc1ccc(Cl)cc1C(=O)c1ccncc1
IC50 [1]: < 1000 nM

CC1(c2ccc(S(=O)(=O)Nc3ccc(Cl)cc3C(=O)c3cc[n+]([O-])cc3)cc2)OCCO1
IC50 [1]: < 1000 nM

COc1ccc(S(=O)(=O)Nc2ccc(Cl)cc2C(=O)Nc2ccccc2)cc1
IC50 [1]: < 1000 nM

CC(C)Oc1ccc(S(=O)(=O)Nc2ccc(Br)cc2C(=O)c2ccncc2)cc1
IC50 [1]: < 1000 nM

CC(C)(c1ccc(S(=O)(=O)Nc2ccc(Cl)cc2C(=O)c2ccncc2)cc1)c1ncco1
IC50 [1]: < 1000 nM

CC(C)(C)c1ccc(S(=O)(=O)Nc2ccc(Cl)cc2C(=O)c2cccnc2)cc1
IC50 [1]: < 1000 nM

O=C(c1ccncc1)c1cc(Cl)ccc1NS(=O)(=O)c1ccc(N2CCCC2)cc1
IC50 [1]: < 1000 nM

O=C(c1ccncc1)c1cc(Cl)ccc1NS(=O)(=O)c1ccc(CCc2ncco2)cc1
IC50 [1]: < 1000 nM

Cc1cc(C(=O)c2cc(Cl)ccc2NS(=O)(=O)c2ccc(C3(C)CCOCC3)cc2)ccn1
IC50 [1]: < 1000 nM

CC(C)(c1ccc(S(=O)(=O)Nc2ccc(Cl)cc2C(=O)c2ccnc(Cl)c2)cc1)c1ncco1
IC50 [1]: < 1000 nM

Cc1cc(C(=O)c2cc(Cl)ccc2NS(=O)(=O)c2ccc(OC(C)C)cc2)ccn1
IC50 [1]: < 1000 nM

O=C(c1ccncc1)c1cc(Cl)ccc1NS(=O)(=O)c1ccc(-c2ccoc2)cc1
IC50 [1]: < 1000 nM

CC(C)(C)c1ccc(S(=O)(=O)Nc2ccc(Cl)cc2C(=O)c2nccs2)cc1
IC50 [1]: < 1000 nM

CC1(c2ccc(S(=O)(=O)Nc3ccc(Cl)cc3C(=O)c3ccc[n+]([O-])c3)cc2)CCOCC1
IC50 [1]: < 1000 nM

CC(C)(C)c1ccc(S(=O)(=O)Nc2ccc(Cl)cc2C(=O)c2cc[nH]n2)cc1
IC50 [1]: < 1000 nM

CC(=O)N1CCN(c2ccc(S(=O)(=O)Nc3ccc(Cl)cc3C(=O)c3ccncc3)cc2)CC1
IC50 [1]: > 1000 nM

Cc1ncccc1C(=O)c1cc(Cl)ccc1NS(=O)(=O)c1ccc(C2(C)CCOCC2)cc1
IC50 [1]: < 1000 nM

Cc1ccc(C(=O)c2cc(Cl)ccc2NS(=O)(=O)c2ccc(-c3cnc(C)o3)cc2)cn1
IC50 [1]: > 1000 nM

Cc1ccc(C(=O)c2cc(Cl)ccc2NS(=O)(=O)c2ccc(C(C)(C)c3ncco3)cc2)c[n+]1[O-]
IC50 [1]: < 1000 nM

Cc1ccc(C(=O)c2cc(Cl)ccc2NS(=O)(=O)c2ccc(C(C)(C)c3cnco3)cc2)cn1
IC50 [1]: < 1000 nM

O=C(c1ccncc1)c1cc(Cl)ccc1NS(=O)(=O)c1ccc(N2CCS(=O)(=O)CC2)cc1
IC50 [1]: > 1000 nM

Cc1ccc(C(=O)c2cc(Cl)ccc2NS(=O)(=O)c2ccc(N3C[C@@H](C)O[C@@H](C)C3)c(F)c2)cn1
IC50 [1]: < 1000 nM

Cn1nncc1C(=O)c1cc(Cl)ccc1NS(=O)(=O)c1ccc(C(C)(C)C)cc1
IC50 [1]: < 1000 nM

O=C(c1ccncc1)c1cc(Cl)ccc1NS(=O)(=O)c1ccc(-c2cncnc2)cc1
IC50 [1]: > 1000 nM

Cc1ccc(C(=O)c2cc(Cl)ccc2NS(=O)(=O)c2ccc(-c3nnc(C)o3)cc2)cn1
IC50 [1]: > 1000 nM

Cc1ccc(C(=O)c2cc(Cl)ccc2NS(=O)(=O)c2ccc(N3CCOCC3)c(F)c2)cn1
IC50 [1]: < 1000 nM

CC(C)(C)c1ccc(S(=O)(=O)Nc2ccc(S(=O)(=O)N3CCCC3)cc2C(=O)c2ccncc2)cc1
IC50 [1]: > 1000 nM

Cc1ccc(C(=O)c2cc(Cl)ccc2NS(=O)(=O)c2ccc(OC(F)(F)F)cc2)cn1
IC50 [1]: < 1000 nM

CC(C)(C)c1ccc(S(=O)(=O)Nc2ccc(Cl)cc2C(=O)c2cc[n+]([O-])c(Cl)c2)cc1
IC50 [1]: < 1000 nM
